For 25 compounds, T/C results are on record in PubChem BioAssay AID330 (DTP/NCI, 2004).

Several values for one entry are separate records, joined by “and”; a condition that tells them apart may be missing. Equal entries are not always repeated. Toxic doses and inconclusive results are not listed.

In this assay the test system is P388 leukemia ip, CD2F1 mice, survival T/C. Nature of the assay: NCI In Vivo Anticancer Drug Screen. Data for tumor model P388 Leukemia (intraperitoneal) in CD2F1 (CDF1) mice. Particulars: endpoint: median survival time, higher = longer survival. The method, boiled down: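 Mice carrying the transplanted tumor received test compound or vehicle. Survival was recorded in each group, and the value is the treated-group measurement divided by that of the vehicle-treated control group.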

Where [1] appears, read: dose: 50.0 mg/kg/injection, schedule: Q01DX009 (ip), vehicle: Klucel (hydroxypropylcellulose) (HPC).
Setting [2] is: dose: 100.0 mg/kg/injection, schedule: Q01DX009 (ip), vehicle: Klucel (hydroxypropylcellulose) (HPC).
The mark [3] stands for this setting: dose: 200.0 mg/kg/injection, schedule: Q01DX009 (ip), vehicle: Klucel (hydroxypropylcellulose) (HPC).
Where [4] appears, read: dose: 50.0 mg/kg/injection, schedule: Q01DX005 (ip), vehicle: saline with Tween-80.
Setting [5] is: dose: 100.0 mg/kg/injection, schedule: Q01DX005 (ip), vehicle: saline with Tween-80.
The mark [6] stands for this setting: dose: 200.0 mg/kg/injection, schedule: Q01DX005 (ip), vehicle: saline with Tween-80.
Where [7] appears, read: dose: 25.0 mg/kg/injection, schedule: Q01DX009 (ip), vehicle: saline with Tween-80.
[8] abbreviates: dose: 50.0 mg/kg/injection, schedule: Q01DX009 (ip), vehicle: saline with Tween-80.
The mark [9] stands for this setting: dose: 12.5 mg/kg/injection, schedule: Q01DX009 (ip), vehicle: saline with Tween-80.
[10] abbreviates: dose: 25.0 mg/kg/injection, schedule: Q01DX005 (ip), vehicle: saline with Tween-80.
The mark [11] stands for this setting: dose: 6.25 mg/kg/injection, schedule: Q01DX009 (ip), vehicle: saline.
Where [12] appears, read: dose: 12.5 mg/kg/injection, schedule: Q01DX009 (ip), vehicle: saline.
Where [13] appears, read: dose: 100.0 mg/kg/injection, schedule: Q04DX003 (ip), vehicle: saline with Tween-80.
Setting [14] is: dose: 200.0 mg/kg/injection, schedule: Q04DX003 (ip), vehicle: saline with Tween-80.

In the case of `COc1cccc2c1C(=O)c1c(O)c3c(c(O)c1C2=O)C[C@@](O)(C(O)O)C[C@@H]3OC1CC(N)C(O)C(C)O1` (stereo not given in full), the T/C runs as follows: (dose: 2.0 mg/kg/injection, schedule: Q01DX009 (ip), vehicle: water) 168 % of control; (dose: 4.0 mg/kg/injection, schedule: Q01DX009 (ip), vehicle: water) 154 % of control; (dose: 100.0 mg/kg/injection, schedule: Q04DX003 (ip), vehicle: water) 109 % of control and 121 % of control.

With `CCCCCCCCC(=O)c1c(OC)oc(/C=N/NC(N)=O)cc1=O`, the T/C by setting is: (dose: 25.0 mg/kg/injection, schedule: Q01DX009 (ip), vehicle: Klucel (hydroxypropylcellulose) (HPC)) 92 % of control; under setting [1], 89 % of control; under setting [2], 92 % of control; under setting [3], 91 % of control.

With `CCOC(=O)C(N=Nc1ccc(Br)c(C)c1)C(C)=O` (stereo not given), the T/C by setting is: under setting [4], 107 % of control; under setting [5], 93 % of control; under setting [6], 97 % of control.

Take `O=C1NC(=O)N(c2ccc(Cl)c(Cl)c2)C1=O`: the T/C is, setting by setting: under setting [1], 94 % of control; under setting [2], 93 % of control; under setting [3], 94 % of control.

Turning to `COC(=O)CC(=O)C(C)SC` (stereo not given), the T/C reads like this: under setting [7], 100 % of control; under setting [8], 109 % of control; (dose: 100.0 mg/kg/injection, schedule: Q01DX009 (ip), vehicle: saline with Tween-80) 97 % of control.

For `O=[N+]([O-])c1cccc(SNCCO)c1`, the T/C by setting is: under setting [9], 108 % of control; under setting [7], 100 % of control; under setting [8], 100 % of control and 94 % of control.

In the case of `Clc1cc[c]([Sn]([Cl])([O][Sn]([Cl])([c]2ccc(Cl)cc2)[c]2ccc(Cl)cc2)[c]2ccc(Cl)cc2)cc1`, the T/C (dose: 3.12 mg/kg/injection, schedule: Q01DX005 (ip), vehicle: saline) was 103 % of control; the T/C (dose: 6.25 mg/kg/injection, schedule: Q01DX005 (ip), vehicle: saline) was 108 % of control; the T/C (dose: 12.5 mg/kg/injection, schedule: Q01DX005 (ip), vehicle: saline) is 119 % of control; the T/C (dose: 25.0 mg/kg/injection, schedule: Q01DX005 (ip), vehicle: saline) was 162 % of control.

As to `O=c1[nH]c2c([N+](=O)[O-])cc(Cl)cc2nc1/C=C(\O)c1cccnc1`, the T/C is 99 % of control (dose: 60.0 mg/kg/injection, schedule: Q01DX005 (ip), vehicle: Klucel (hydroxypropylcellulose) (HPC)); 99 % of control (dose: 120.0 mg/kg/injection, schedule: Q01DX005 (ip), vehicle: Klucel (hydroxypropylcellulose) (HPC)); 111 % of control (dose: 240.0 mg/kg/injection, schedule: Q01DX005 (ip), vehicle: Klucel (hydroxypropylcellulose) (HPC)).

For the compound `Cc1cccc[n+]1CC(=O)C[n+]1ccccc1C`, the T/C by setting is: (dose: 50.0 mg/kg/injection, schedule: Q01DX005 (ip), vehicle: saline) 95 % of control; (dose: 100.0 mg/kg/injection, schedule: Q01DX005 (ip), vehicle: saline) 101 % of control.

`C/C(=N\Nc1cc(C)c2ccccc2n1)c1ccccn1`: the T/C by setting is: (dose: 12.5 mg/kg/injection, schedule: Q01DX005 (ip), vehicle: saline with Tween-80) 103 % of control; under setting [10], 103 % of control; under setting [4], 102 % of control and 115 % of control.

As for `CC(C)[CH2][Pb]([CH2]C(C)C)([CH2]C(C)C)[n]1ccnc1`, the T/C (dose: 3.12 mg/kg/injection, schedule: Q01DX009 (ip), vehicle: saline) is 101 % of control; the T/C under setting [11] is 108 % of control; the T/C under setting [12] is 111 % of control.

Turning to `O=c1[nH]c(Br)nc2nc[nH]c12`, the T/C by setting is: under setting [4], 93 % of control; under setting [5], 94 % of control; under setting [6], 92 % of control.

On to `C=CC(C)(C)C1Oc2cc(OC)ccc2C(=O)C1c1ccc(OC)c(OC)c1O` (stereo not given), for which the T/C (dose: 100.0 mg/kg/injection, schedule: Q04DX003 (ip), vehicle: Klucel (hydroxypropylcellulose) (HPC)) is 99 % of control; the T/C (dose: 200.0 mg/kg/injection, schedule: Q04DX003 (ip), vehicle: Klucel (hydroxypropylcellulose) (HPC)) is 98 % of control; the T/C (dose: 400.0 mg/kg/injection, schedule: Q04DX003 (ip), vehicle: Klucel (hydroxypropylcellulose) (HPC)) is 96 % of control.

With `CC(C)OC1NC(=O)Oc2ccccc21` (stereo not given), the T/C under setting [4] is 104 % of control, the T/C under setting [5] is 110 % of control and the T/C under setting [6] was 113 % of control.

With `SCc1ccccc1.[Cu+2]`, the T/C reads like this: (dose: 6.25 mg/kg/injection, schedule: Q01DX009 (ip), vehicle: saline with Tween-80) 99 % of control; under setting [9], 91 % of control; under setting [7], 97 % of control.

As to `CC1=CC(=O)N(NC(N)=O)C1=O`, the T/C under setting [11] was 102 % of control and 110 % of control; the T/C under setting [12] is 105 % of control and 108 % of control; the T/C (dose: 25.0 mg/kg/injection, schedule: Q01DX009 (ip), vehicle: saline) is 110 % of control and 123 % of control; the T/C (dose: 50.0 mg/kg/injection, schedule: Q01DX009 (ip), vehicle: saline) was 109 % of control and 122 % of control.

On to `COc1cccc2c1C(=O)c1c(O)c3c(c(O)c1C2=O)CC(O)CC3OC1CC(N)C(O)C(C)O1` (stereo not given), for which the T/C was 157 % of control (dose: 3.13 mg/kg/injection, schedule: Q01DX009 (ip), vehicle: water) and 173 % of control (dose: 6.25 mg/kg/injection, schedule: Q01DX009 (ip), vehicle: water).

As for `c1cc2nncn2cn1`, the T/C under setting [1] was 93 % of control, the T/C under setting [2] was 104 % of control and the T/C under setting [3] was 99 % of control.

For the compound `C=CCC12C[C@H](OC)[C@@H](O)[C@](OC)(C1O)[C@H](c1ccc3c(c1)OCO3)[C@H]2C` (stereo not given in full), the T/C runs as follows: (dose: 16.25 mg/kg/injection, schedule: Q01DX005 (ip), vehicle: Klucel (hydroxypropylcellulose) (HPC)) 108 % of control; (dose: 32.5 mg/kg/injection, schedule: Q01DX005 (ip), vehicle: Klucel (hydroxypropylcellulose) (HPC)) 98 % of control; (dose: 65.0 mg/kg/injection, schedule: Q01DX005 (ip), vehicle: Klucel (hydroxypropylcellulose) (HPC)) 99 % of control; (dose: 130.0 mg/kg/injection, schedule: Q01DX005 (ip), vehicle: Klucel (hydroxypropylcellulose) (HPC)) 89 % of control.

Take `O=C(Oc1ccccc1[N+](=O)[O-])C1CCCN1C(=O)OCc1ccccc1` (stereo not given): the T/C is 104 % of control under setting [10], 109 % of control under setting [4], 102 % of control under setting [5] and 99 % of control under setting [6].

For the compound `CC([OH2+])CNCCN.CC([OH2+])CNCCN.O=[N+]([O-])[O-].[Ni+2]` (stereo not given), the T/C was 87 % of control (dose: 3.13 mg/kg/injection, schedule: Q01DX009 (ip), vehicle: saline); 88 % of control under setting [11]; 102 % of control and 87 % of control under setting [12].

On to `Oc1c(-c2ccccc2)cc(-[n+]2c(-c3ccccc3)cc(-c3ccccc3)cc2-c2ccccc2)cc1-c1ccccc1`, for which the T/C is 88 % of control (dose: 0.38 mg/kg/injection, schedule: Q01DX009 (ip), vehicle: saline with Tween-80); 106 % of control (dose: 0.75 mg/kg/injection, schedule: Q01DX009 (ip), vehicle: saline with Tween-80); 121 % of control (dose: 1.5 mg/kg/injection, schedule: Q01DX009 (ip), vehicle: saline with Tween-80); 122 % of control (dose: 3.0 mg/kg/injection, schedule: Q01DX009 (ip), vehicle: saline with Tween-80).

As to `O=C1NC(=O)C2(CC3CCCCC3CC2c2ccccc2)N1` (stereo not given), the T/C is, setting by setting: under setting [13], 89 % of control; under setting [14], 91 % of control; (dose: 400.0 mg/kg/injection, schedule: Q04DX003 (ip), vehicle: saline with Tween-80) 100 % of control.

In the case of `COC(=O)c1[nH]c(=O)[nH]c(=O)c1N`, the T/C (dose: 25.0 mg/kg/injection, schedule: Q04DX003 (ip), vehicle: saline with Tween-80) was 100 % of control; the T/C (dose: 50.0 mg/kg/injection, schedule: Q04DX003 (ip), vehicle: saline with Tween-80) was 101 % of control; the T/C under setting [13] is 100 % of control; the T/C under setting [14] was 102 % of control.

In the case of `COC(=O)c1cccc(OCC(=O)Nc2ccccc2)c1`, the T/C runs as follows: (dose: 100.0 mg/kg/injection, schedule: Q01DX001 (ip), vehicle: saline with Tween-80) 100 % of control; (dose: 200.0 mg/kg/injection, schedule: Q01DX001 (ip), vehicle: saline with Tween-80) 100 % of control; (dose: 400.0 mg/kg/injection, schedule: Q01DX001 (ip), vehicle: saline with Tween-80) 90 % of control.
